Results: publication PMC4764201, “High Throughput Screen for Escherichia coli Twin Arginine Translocation (Tat) Inhibitors” (PLoS ONE, 2016)
Entries after “also recorded” stand apart in the source; their conditions may differ.

Biological target: E. coli Tat machinery (IMVs containing overproduced TatABC) (Escherichia coli, UniProt P69423+P69425+P69428)
Assay: In vitro Tat transport assay of pre-SufI into IMVs, NADH as energy source
Assay type: biochemical
Conditions: for IC50: efficiency of NADH-dependent in vitro Tat transport of pre-SufI, IMVs A280 = 5; for effect on in vitro E. coli Tat transport: 90 nM pre-SufI, NADH, with and without 2.5 mM DTT; for outcome of NADH-dependent in vitro Tat transport screen (survival = visible inhibition of Tat transport): hit compound 20 μM, NADH 4 mM, 37°C 30 min
Description: To directly test for inhibition of Tat transport, a gel-based in vitro Tat transport assay was performed using pre-SufI, an authentic Tat precursor protein [7]. In short, this assay consists of incubating a Tat substrate and a Δψ-generating energy source with inverted membrane vesicles (IMVs) containing overproduced TatABC, digesting remaining external protein with a protease, and then analyzing via SDS-PAGE. This assay was run twice using NADH and ATP (if warranted) as energy sources to generate the necessary Δψ. NADH generates a Δψ using respiratory proteins (i.e., the NADH dehydrogenase and cytochrome bo3 ubiquinol oxidase complexes) and ATP generates a Δψ by reversal of ATP synthase. A true Tat inhibitor would survive both assays. In contrast, a respiration inhibitor is expected to reduce Tat transport when only one of the two energy sources is used (except for an ionophore).
Fig 8 Effect of Hits from the Local HTS on In Vitro Tat Transport. (A) Tat transport assays of pre-SufI using NADH to generate a Δψ. Inverted membrane vesicles (IMVs; A280 = 5.0), the fluorescent substrate pre-SufI-IAC^Atto565 (90 nM), and NADH (4 mM) were incubated at 37°C for 30 min with DMSO (control) or with hit compound (20 μM). Samples were treated with the protease proteinase K, run on SDS-PAGE, and analyzed by in-gel fluorescence imaging. Assays were run in duplicate. Band intensity corresponds to the amount of protein transported into the IMV lumen. The following 7 compounds survived this screen: 1^JS, 51^JS, 55^JS, 111^JS, 181^JS, 202^JS, and 140^JS (boxed in red). (B) Tat transport assays of pre-SufI using ATP to generate a Δψ. All 7 compounds surviving the screen in (A) were tested using a Tat transport assay performed identically to those in (A) except that ATP (1 mM) was used in place of NADH. Compound 55^JS was eliminated by this assay—the other 6 compounds survived (boxed in red). (C) Chemical structure of compound 55^JS, N-(4,7-Dioxo-4,7-dihydro-2,1,3-benzoxadiazol-5-yl)acetamide.
Isolation of inverted membrane vesicles (IMVs), Western blot analyses and purification of pre-SufI-IAC were performed as described previously. Western blots were performed using rabbit anti-mCherry antibodies (1:10,000 dilution) in the presence of 0.1% Triton X-100 and 0.1% Tween 20. The pre-SufI-IAC protein was labeled with Atto565 maleimide, and the resultant fluorescent protein, pre-SufI-IAC^Atto565, was used as a substrate for the in vitro Tat transport assays (A280 = 5.0), as described previously. The presence of a Δψ was determined by measuring oxonol VI fluorescence in presence of Tat^+ IMVs (A280 = 0.5), as described previously, except that the translocation buffer lacked BSA. Steady-state fluorescence spectra and fluorescence intensities of whole cells producing mCherry proteins were determined with an SLM-8100 spectrofluorometer.
Supplementary file pone.0149659.s003.tiff: S3 Fig IC50's for Hit Compound 181^JS. (A) The total cellular mCherry fluorescence (live cell assay; n = 1), (B) the in vitro NADH-dependent Tat transport efficiency of pre-SufI (n = 1), and (C) the maximum transmembrane electrical potential gradient (n = 1) were measured for a range of concentrations of compound 181^JS (S2E Fig). (D) SDS-PAGE gel showing in-gel fluorescence data used in (B). For (A), cells expressing spTorA-mCherry-SsrA were grown under Tat^++ conditions in a 384-well plate in the presence of 0, 0.08, 0.15, 0.3, 0.63, 1.25, 2.5, 5, 10, 20, or 40 μM compound 181^JS, as described for the HTS assay (see Methods). For (B) and (C), IMVs were incubated with the same concentrations of compound 181^JS prior to initiation of Tat transport and Δψ generation by the addition of NADH, as described previously. The red curves are best-fits using y = d + (100-d)/(1+(x/IC50)^b), where b is a slope factor and d is the high concentration asymptote. (TIFF) Click here for additional data file.

Sequence of E. coli Tat machinery (IMVs containing overproduced TatABC) (P69423 2-258): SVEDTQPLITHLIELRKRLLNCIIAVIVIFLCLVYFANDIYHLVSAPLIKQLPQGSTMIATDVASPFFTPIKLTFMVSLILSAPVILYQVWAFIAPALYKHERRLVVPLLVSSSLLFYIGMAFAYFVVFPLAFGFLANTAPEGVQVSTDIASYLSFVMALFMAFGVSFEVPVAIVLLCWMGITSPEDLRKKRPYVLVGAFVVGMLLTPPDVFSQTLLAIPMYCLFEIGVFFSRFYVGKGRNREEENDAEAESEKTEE
Sequence of E. coli Tat machinery (IMVs containing overproduced TatABC) (P69425 whole entry): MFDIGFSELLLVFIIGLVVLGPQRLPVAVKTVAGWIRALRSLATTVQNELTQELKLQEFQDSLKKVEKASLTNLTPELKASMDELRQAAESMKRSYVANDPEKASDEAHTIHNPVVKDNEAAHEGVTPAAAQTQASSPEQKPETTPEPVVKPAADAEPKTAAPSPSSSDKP
Sequence of E. coli Tat machinery (IMVs containing overproduced TatABC) (P69428 whole entry): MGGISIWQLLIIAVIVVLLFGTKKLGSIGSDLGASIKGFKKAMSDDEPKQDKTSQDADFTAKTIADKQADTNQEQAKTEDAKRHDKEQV

Compound	IC50	effect on in vitro E. coli Tat transport	outcome of NADH-dependent in vitro Tat transport screen (survival = visible inhibition of Tat transport)
N#CC1c2ccccc2-n2nncc2CN1Cc1cc(Cl)cc(Cl)c1 (stereo not shown) [21^NIH, 5-[(3,5-dichlorophenyl)methyl]-4,6-dihydrotriazolo[1,5-a][1, 4]benzodiazepine-6-carbonitrile]	50 µM		
Cc1ccc(S(=O)(=O)/C=C/C#N)cc1 [Bay 11–7082]		neither compound affected; also recorded: do not inhibit	
N#CC(C#N)=NNc1ccccc1Br [Compound 1, [(2-bromophenyl)hydrazono]malononitrile]			survived
O=[N+]([O-])c1cc([N+](=O)[O-])c2ccccc2c1Cl [Compound 51, 1-chloro-2,4-dinitronaphthalene]			survived
Fc1nc(F)c(F)c(NNC(=S)Nc2cccc(C(F)(F)F)c2)c1F [Compound 111, 1-[(2,3,5,6-tetrafluoropyridin-4-yl)amino]-3-[(3-trifluoromethyl)phenyl]thiourea]	0.7 µM		survived
FC(F)(F)c1cccc(-c2cccc3cnccc23)c1 [Compound 140, 5-[3-(trifluoromethyl)phenyl]isoquinoline]			survived
O=C(Nc1cccc(C(F)(F)F)c1)Nc1ncc([N+](=O)[O-])s1 [Compound 181^JS, 1-(5-nitro-1,3-thiazol-2-yl)-3-[3-(trifluoromethyl)phenyl]urea]			survived
O=[N+]([O-])c1ccc(O)c(-c2cccs2)c1 [Compound 202, 4-nitro-2-thiophen-2-ylphenol]			survived
O=C1C=CC(=O)N1c1ccccc1 [N-phenylmaleimide]		neither compound affected; also recorded: do not inhibit	
